Results on two molecules are retold here after ChEMBL document CHEMBL1158920, “Tubulosine: an antitumor constituent of Pogonopus speciosus” (J Nat Prod, 1990).

For data set [1], the system named is HT-29. The data set can be described thus: Cytotoxicity against human HT-29 cells. In kind it is functional.
Data set [2] concerns A549. The data set can be described thus: Cytotoxicity against human A549 cells. The format is functional.
In data set [3] the test system is MCF7. The data set can be described thus: Cytotoxicity against human MCF7 cells. The format is functional.
The subject of data set [4] is Artemia. The data set can be described thus: Toxicity in brine shrimp. In kind it is organism-based. Conditions: in vivo.
Data set [5] in a line: Cytotoxicity against mouse 9PS cells. The format is functional.
Data set [6] can be described thus: In vivo antitumor activity against mouse 3PS cells at 0.25 mg/kg, relative to control. In kind it is functional.
The nature of data set [7]: Cytotoxicity against human 9KB cells. In kind it is functional. Conditions: read-out: ED50 (the source's name).
For data set [8], the system named is Agrobacterium tumefaciens. Nature of the data set: Antitumor activity against Agrobacterium tumefaciens-induced crown gall tumors in potato by disk test. The format is functional.

SMILES strings stand for the structures. Values after ≈ are worked out from the molar mass of the structure shown.

In the case of `CC[C@H]1CN2CCc3cc(OC)c(OC)cc3[C@@H]2C[C@@H]1CC1=NCCc2cc(O)c(OC)cc21` [PSYCHOTRINE], the EC50 is more than 10 µg/mL in data set [1] (Homo sapiens, HT-29, read-out: ED50 (the source's name)); more than 10 µg/mL in data set [2] (Homo sapiens, A549, read-out: ED50 (the source's name)); more than 10 µg/mL in data set [3] (Homo sapiens, MCF7, read-out: ED50 (the source's name)); 1 µg/mL (≈ 2.15 µM) in data set [5] (Mus musculus, read-out: ED50 (the source's name)). The LC50 – broadly, the concentration lethal to half of the exposed cells or organisms – in data set [4] is reported as more than 1000 ppm.
Take `CC[C@H]1CN2CCc3cc(OC)c(OC)cc3[C@@H]2C[C@@H]1C[C@H]1NCCc2c1[nH]c1ccc(O)cc21` [TUBULOSINE]: the ED50 in data set [1] is listed as less than 1 ×10⁻⁵ ug/ml; in data set [2], less than 1 ×10⁻⁵ ug/ml; in data set [3], less than 1 ×10⁻⁵ ug/ml; in data set [5], 3.8 ×10⁻⁴ ug/ml. Besides, the T/C (usually the ratio of treated to control) in data set [6] is given as 186%. Also, the EC50 in data set [7] stood at 0.01 µg/mL (≈ 0.021 µM). Also, the 50% lethal concentration (LC50) in data set [4] was determined as 0.02 ppm. Also, the “inhibition (INH)” value in data set [8] was 81%.
